# Measured values: US6617319B2, “Methods of use for 2-deoxy ecdysterone” (Council of Science and Industrial Research, priority 2000, dated 2003)
# Where “and” joins values, the source holds several entries; their conditions need not be identical. Equal values may be shown once.
# Assays:
# [1] = radiolabelled compound injected into human volunteers; within 5 hours; cited from earlier work
# guinea pig uterus = type: cell-based
# Text: A female virgin guinea pig that was in oestrous and weighing around 400-500 gm was used for the test. The animal was killed by a stunning blow on the head. The abdomen was immediately cut open. The uterus was dissected out and placed in a petri plate containing aerated De Jalon's solution (M. N Ghosh, in fundamentals of Experimental Pharmacology, 1984, second edition, Scientific book agency, Calcutta). The uterus was freed from fat and the two uterine horns were separated by cutting the lower end. Only one horn was used for the experiment. Two small loops of thread were made at each end of the uterus and kept in a tissue bath of 10 ml capacity containing aerated De Jalon's solution. The lower end was tied to the tissue holder and the upper end to the writing lever. The lever was balanced to provide a tension of 1 g with plasticene. The tissue was left in the bath for ½ hr for stabilisation before starting the experiment and the physiological solution (De Jalon's solution) was renewed every 10 minutes. This example illustrates the procedure used for the preparation of the guinea pig uterus for testing the oxytocic property of the pure white solid, 2-deoxy ecdysterone.
# After stabilisation, 2-3 doses of oxytocin (Parke Davis Ltd, Hyderabad) were added as standard to the physiological solution, the dose depending on the amplitude of contraction to obtain uniform contractions. The extract was then added to the bath (50 & 250 μg/ml) and allowed to act for one minute. If a contraction was observed during that one-minute period, extract was considered to be oxytocin-like and having oxytocic property. After every contraction, the tissue was immediately washed twice with the physiological solution and relaxed for 10 minutes. The same procedure was followed for the crude extract, fractions and the purified white solid, identified as 2-deoxy ecdysterone.
# The oxytocic activity of the crude, fractions and the pure compound was tested on the guinea pig uterus based on its ability to contract the relaxed uterus. The tissue was spiked with a standard oxytocic agent which induces contraction of the tissue. The efficacy of the testing agent was measured by its ability to contract the uterus by comparing the height of contraction with the standard oxytocin (Table 1). This example illustrates the procedure used for testing the crude extract and the detailed procedure followed.
Molecule,Radioactivity excreted in the urine [1],% response compared to standard PGF2α (guinea pig uterus),% response compared to standard oxytocin (guinea pig uterus),Inducing contractions in the guinea pig uterus (guinea pig uterus),Potency compared with standard oxytocin and PGF2α (guinea pig uterus)
CCCCC[C@H](O)/C=C/[C@@H]1[C@@H](C/C=C\CCCC(=O)O)[C@@H](O)C[C@H]1O [PGF2α],around 90%,,,,
CCCCC[C@H](O)/C=C/[C@H]1[C@H](O)CC(=O)[C@@H]1C/C=C\CCCC(=O)O [PGE2],about 50%,,,,
2-deoxy ecdysterone,,69.4% and 82.3% and 114.1%,80.8% and 92.3% and 118.0%,effective,more potent than the standard oxytocin and PGF2α
